Measured values taken from patent US12521375B2, “Pharmaceutical composition for treating fatty liver disease” (Shionogi & Co., Ltd., priority 2020, dated 2026).
Values joined by “and” are separate entries in the source; they are usually repeats but may differ in a detail not shown here. Equal entries are not always repeated. Blank lines part the entries; values can stand above or below the compound they belong to.

Tests used:
Tissue distribution test = format: in vivo, Crl:CD (SD) rats; details: rats, intravenous 0.5 mg/kg, 30 minutes after administration
Procedure: To 8-week-old male Crl:CD (SD) rats, the compound of the present invention was intravenously administered at a dose of 0.5 mg/mL/kg under non-fasted conditions, and 30 minutes after administration, the rats were killed by exsanguination through whole blood collection from the abdominal aorta under anesthesia. Then, the liver and muscles were removed, and a 25% homogenate was prepared with distilled water. The obtained blood was centrifuged, and plasma was then obtained. Then, control plasma and control tissue homogenate were added to the tissue homogenate sample and the plasma sample, respectively, at 1:1, and each sample was measured using LC/MS/MS. The measured area ratio (tissue/plasma) obtained was used as a tissue Kp value. For compound I-12, the value was 6.10 in the liver and 1.29 in muscles, and for compound I-13, the value was 4.06 in the liver and 0.918 in muscles. Therefore, the compound of the present invention has a property of being distributed in the liver and muscles in vivo.

[1] = test system: high-fat diet-loaded mice with spontaneous fatty liver; assay: Effect on liver fibrosis progression in high-fat diet-loaded mice with spontaneous fatty liver; format: in vivo, FLS.B6-Lep<ob>/Shi mice; set-up: 3-hydroxybutyric acid in plasma: unit not given here; details: for Amount of triglyceride in liver / Sirius red-positive area rate / 3-hydroxybutyric acid in plasma / Plasma triglyceride concentration / Change in hemoglobin A1c (day 26 of administration) − (before start of administration) / Hemoglobin A1c, Before start of administration / Hemoglobin A1c, Day 26 of administration: bid; for Amount of triglyceride in liver / Sirius red-positive area rate: oral, 4 weeks; for Change in hemoglobin A1c (day 26 of administration) − (before start of administration) / Hemoglobin A1c, Before start of administration / Hemoglobin A1c, Day 26 of administration: individual animals
Procedure: Eight-week-old male FLS.B6-Lep/Shi mice were fed a high-fat diet (60 kcal % fat content, using shortening, containing 2% cholesterol and 8.7% fructose), and at the same time, the compound of the present invention was suspended in a 0.5% MC aqueous solution so as to have a dose of 5.5 to 60 mg/kg/5 mL, and orally repeatedly administered (b.i.d.) for 4 weeks. Blood was collected from the tail vein during the repeated administration period, and biochemical parameters in plasma were measured. After 4 weeks of administration, blood was collected from the abdominal vena cava under anesthesia, and then the liver was collected. Paraffin-embedded sections prepared from the collected liver were subjected to Sirius red staining. A degree of fibrosis progression in the liver was determined from a Sirius red-positive area rate and evaluated.

[2] = Metabolic stability test (rat); format: in vitro ADME
Procedure: [Worded in the source for another species; this species is reported under the same test.] Commercially available pooled human liver microsomes were reacted with the compound of the present invention for a given time. A residual rate was calculated by comparison between the reacted sample and the unreacted sample to evaluate a degree at which the compound of the present invention is metabolized in the liver.
The compound was reacted at 37° C. for 0 minutes or 30 minutes in the presence of 1 mmol/L NADPH in 0.2 mL of a buffer (50 mmol/L Tris-HCl pH 7.4, 150 mmol/L potassium chloride, and 10 mmol/L magnesium chloride) containing 0.5 mg protein/mL of the human liver microsomes (oxidative reaction). After the reaction, 50 μL of the reaction solution was added to 100 μL of a solution of methanol/acetonitrile=1/1 (v/v) and mixed, and the mixture was centrifuged at 3000 rpm for 15 minutes. The compound of the present invention in the centrifuged supernatant was quantified by LC/MS/MS or solid-phase extraction (SPE)/MS. The amount of the compound of the present invention remained after the reaction was calculated with the amount of the compound at 0 minutes of the reaction defined as 100%.

[3] = test system: Malonyl-CoA concentration in organ; assay: Test for evaluating malonyl-CoA concentration in liver and muscles; format: in vivo, BKS.Cg-+Lepr^db/+Lepr^db/Jcl mice; details: for Malonyl-CoA concentration in organ with vehicle administration group defined as 100%, Liver / Malonyl-CoA concentration in organ with vehicle administration group defined as 100%, Muscle: 2 hours after administration; for malonyl-CoA concentrations in the liver and muscles (in words): 0.3 to 6 mg/kg oral
Procedure: Eight-week-old male BKS.Cg-+Lepr^db/+Lepr^db/Jcl mice were fasted for 4 hours, then the compound of the present invention was orally administered at a dose of 0.3 to 6 mg/5 mL/kg, and 2 hours after administration, the mice were killed by exsanguination through whole blood collection from the abdominal vena cava under anesthesia. Then, the liver and muscles were removed, and a 9% homogenate was prepared in a homogenizing buffer (distilled water: 60% perchloric acid: 85% phosphoric acid=43:5:2). The malonyl-CoA concentration in the tissue was quantified by LC/MS/MS.

tissue Kp value (tissue/plasma), liver (Tissue distribution test): 6.10
tissue Kp value (tissue/plasma), muscles (Tissue distribution test): 1.29
Plasma triglyceride concentration ([1]; 5.5 mg/kg, Week 0): 790 ± 95 mg/dL
Plasma triglyceride concentration ([1]; 5.5 mg/kg, Week 1): 369 ± 32 mg/dL
Plasma triglyceride concentration ([1]; 5.5 mg/kg, Week 2): 464 ± 30 mg/dL
Plasma triglyceride concentration ([1]; 5.5 mg/kg, Week 4): 513 ± 23 mg/dL
Plasma triglyceride concentration ([1]; 11 mg/kg, Week 0): 619 ± 76 mg/dL
Plasma triglyceride concentration ([1]; 11 mg/kg, Week 1): 382 ± 44 mg/dL
Plasma triglyceride concentration ([1]; 11 mg/kg, Week 2): 497 ± 39 mg/dL
Plasma triglyceride concentration ([1]; 11 mg/kg, Week 4): 500 ± 27 mg/dL
Amount of compound remained, Rat [2]: 85.5%
SMILES: C[C@@H](CO[C@H]1CC[C@H](Oc2nc3c(F)cc(OC4CC4)cc3n2C)CC1)NC(N)=O [Compound I-12]
Amount of triglyceride in liver ([1]; 5.5 mg/kg): 451 ± 17 mg/g tissue
Sirius red-positive area rate ([1]; 5.5 mg/kg): 1.26 ± 0.13 %
3-hydroxybutyric acid in plasma ([1]; 5.5 mg/kg, Week 0): 184 ± 20
3-hydroxybutyric acid in plasma ([1]; 5.5 mg/kg, Week 1): 470 ± 93
3-hydroxybutyric acid in plasma ([1]; 5.5 mg/kg, Week 2): 1108 ± 120
3-hydroxybutyric acid in plasma ([1]; 5.5 mg/kg, Week 4): 1354 ± 170
Amount of triglyceride in liver ([1]; 11 mg/kg): 441 ± 11 mg/g tissue
Sirius red-positive area rate ([1]; 11 mg/kg): 1.52 ± 0.18%
3-hydroxybutyric acid in plasma ([1]; 11 mg/kg, Week 0): 178 ± 8.7
3-hydroxybutyric acid in plasma ([1]; 11 mg/kg, Week 1): 449 ± 140
3-hydroxybutyric acid in plasma ([1]; 11 mg/kg, Week 2): 1314 ± 370
3-hydroxybutyric acid in plasma ([1]; 11 mg/kg, Week 4): 1508 ± 380
Sirius red-positive area rate vs vehicle administration group (in words) ([1]; dose of 5.5 mg/kg): significantly lower than that of the vehicle administration group
amount of triglyceride in the liver vs vehicle administration group (in words) ([1]; mouse, in vivo): not significantly different from that in the vehicle administration group
concentration of 3-hydroxybutyric acid in plasma vs vehicle administration group (in words) ([1]; mouse, in vivo): tended to be higher than that in the vehicle administration group
plasma triglyceride concentration vs vehicle administration group (in words) ([1]; mouse, in vivo): not significantly different from that in the vehicle administration group
Malonyl-CoA concentration in organ with vehicle administration group defined as 100%, Liver ([3]; 0.67 mg/kg oral): 92.8%
Malonyl-CoA concentration in organ with vehicle administration group defined as 100%, Muscle ([3]; 0.67 mg/kg oral): 70.8%
Malonyl-CoA concentration in organ with vehicle administration group defined as 100%, Liver ([3]; 2 mg/kg oral): 91.1%
Malonyl-CoA concentration in organ with vehicle administration group defined as 100%, Muscle ([3]; 2 mg/kg oral): 59.5%
Malonyl-CoA concentration in organ with vehicle administration group defined as 100%, Liver ([3]; 6 mg/kg oral): 84.0%
Malonyl-CoA concentration in organ with vehicle administration group defined as 100%, Muscle ([3]; 6 mg/kg oral): 56.4%
malonyl-CoA concentrations in the liver and muscles (in words) [3]: reduced malonyl-CoA concentrations in the liver and muscles in a compound dose-dependent manner

tissue Kp value (tissue/plasma), liver (Tissue distribution test): 4.06
tissue Kp value (tissue/plasma), muscles (Tissue distribution test): 0.918
Plasma triglyceride concentration ([1]; 30 mg/kg, Week 0): 680 ± 81 mg/dL
Plasma triglyceride concentration ([1]; 30 mg/kg, Week 1): 299 ± 27 mg/dL
Plasma triglyceride concentration ([1]; 30 mg/kg, Week 4): 600 ± 59 mg/dL
Plasma triglyceride concentration ([1]; 45 mg/kg, Week 0): 644 ± 89 mg/dL
Plasma triglyceride concentration ([1]; 45 mg/kg, Week 1): 279 ± 40 mg/dL
Plasma triglyceride concentration ([1]; 45 mg/kg, Week 4): 572 ± 54 mg/dL
Plasma triglyceride concentration ([1]; 60 mg/kg, Week 0): 829 ± 97 mg/dL
Plasma triglyceride concentration ([1]; 60 mg/kg, Week 1): 322 ± 30 mg/dL
Plasma triglyceride concentration ([1]; 60 mg/kg, Week 4): 641 ± 86 mg/dL
Amount of compound remained, Rat [2]: 87%
SMILES: CC(=O)N[C@@H](C)CC[C@H]1OC[C@H](Oc2nc3c(F)cc(OC4CC4)cc3n2C)CO1 [Compound I-13]
Amount of triglyceride in liver ([1]; 30 mg/kg): 234 ± 21 mg/g tissue
Sirius red-positive area rate ([1]; 30 mg/kg): 3.05 ± 0.28 %
3-hydroxybutyric acid in plasma ([1]; 30 mg/kg, Week 0): 252 ± 73
3-hydroxybutyric acid in plasma ([1]; 30 mg/kg, Week 1): 397 ± 140
3-hydroxybutyric acid in plasma ([1]; 30 mg/kg, Week 4): 1888 ± 570
Change in hemoglobin A1c (day 26 of administration) − (before start of administration) ([1]; 30 mg/kg): 1.10% and 2.61% and 0.359% and 0.580% and 0.200% and 1.37% and 0.484% and 1.14% and 1.05%
Hemoglobin A1c, Before start of administration ([1]; 30 mg/kg): 6.40% and 6.59% and 6.70% and 6.32% and 7.03% and 7.49% and 7.05% and 6.78% and 6.28%
Hemoglobin A1c, Day 26 of administration ([1]; 30 mg/kg): 7.50% and 9.21% and 7.05% and 6.90% and 7.23% and 8.86% and 7.54% and 7.91% and 7.32%
Amount of triglyceride in liver ([1]; 45 mg/kg): 211 ± 19 mg/g tissue
Sirius red-positive area rate ([1]; 45 mg/kg): 2.65 ± 0.34 %
3-hydroxybutyric acid in plasma ([1]; 45 mg/kg, Week 0): 291 ± 130
3-hydroxybutyric acid in plasma ([1]; 45 mg/kg, Week 1): 829 ± 490
3-hydroxybutyric acid in plasma ([1]; 45 mg/kg, Week 4): 1803 ± 640
Change in hemoglobin A1c (day 26 of administration) − (before start of administration) ([1]; 45 mg/kg): 0.591% and 0.429% and −0.888% and −0.504% and 2.17% and 0.162% and 0.562% and 1.50% and 0.667%
Hemoglobin A1c, Before start of administration ([1]; 45 mg/kg): 6.58% and 6.74% and 7.06% and 5.77% and 5.87% and 7.03% and 6.43% and 6.83% and 7.47%
Hemoglobin A1c, Day 26 of administration ([1]; 45 mg/kg): 7.17% (2×) and 6.17% and 5.26% and 8.04% and 7.19% and 6.99% and 8.33% and 8.13%
Amount of triglyceride in liver ([1]; 60 mg/kg): 235 ± 20 mg/g tissue
Sirius red-positive area rate ([1]; 60 mg/kg): 2.75 ± 0.36 %
3-hydroxybutyric acid in plasma ([1]; 60 mg/kg, Week 0): 217 ± 28
3-hydroxybutyric acid in plasma ([1]; 60 mg/kg, Week 1): 351 ± 72
3-hydroxybutyric acid in plasma ([1]; 60 mg/kg, Week 4): 1260 ± 170
Change in hemoglobin A1c (day 26 of administration) − (before start of administration) ([1]; 60 mg/kg): 0.493% and 0.0708% and 0.696% and 0.463% and 0.150% and −0.0552% and 0.719% and −0.0504%
Hemoglobin A1c, Before start of administration ([1]; 60 mg/kg): 5.50% and 6.36% and 6.46% and 6.60% and 7.12% and 6.80% and 6.55% and 5.83%
Hemoglobin A1c, Day 26 of administration ([1]; 60 mg/kg): 5.99% and 6.43% and 7.16% and 7.06% and 7.27% (2×) and 6.74% and 5.78%
Sirius red-positive area rate vs vehicle administration group (in words) ([1]; dose of 30, 45, or 60 mg/kg): significantly lower than that of the vehicle administration group
amount of triglyceride in the liver vs vehicle administration group (in words) ([1]; mouse, in vivo): not significantly different from that in the vehicle administration group
concentration of 3-hydroxybutyric acid in plasma vs vehicle administration group (in words) ([1]; mouse, in vivo): tended to be higher than that in the vehicle administration group
hemoglobin A1c (in words) ([1]; mouse, in vivo): tended to suppress an increase in hemoglobin A1c
plasma triglyceride concentration vs vehicle administration group (in words) ([1]; mouse, in vivo): not significantly different from that in the vehicle administration group
Malonyl-CoA concentration in organ with vehicle administration group defined as 100%, Liver ([3]; 0.3 mg/kg oral): 90.9%
Malonyl-CoA concentration in organ with vehicle administration group defined as 100%, Muscle ([3]; 0.3 mg/kg oral): 72.8%
Malonyl-CoA concentration in organ with vehicle administration group defined as 100%, Liver ([3]; 1 mg/kg oral): 86.5%
Malonyl-CoA concentration in organ with vehicle administration group defined as 100%, Muscle ([3]; 1 mg/kg oral): 64.9%
Malonyl-CoA concentration in organ with vehicle administration group defined as 100%, Liver ([3]; 3 mg/kg oral): 79.9%
Malonyl-CoA concentration in organ with vehicle administration group defined as 100%, Muscle ([3]; 3 mg/kg oral): 58.4%
malonyl-CoA concentrations in the liver and muscles (in words) [3]: reduced malonyl-CoA concentrations in the liver and muscles in a compound dose-dependent manner
